Test results taken from ChEMBL document CHEMBL1135658, “Structure-activity studies of the melanocortin peptides: discovery of potent and selective affinity antagonists for the hMC3 and hMC4 receptors” (J Med Chem, 2002).
Positions of bridges follow the written chain, without caps; N, C: chain ends. Non-standard residues stand in square brackets, D forms with d. Residues, ends and D or L forms follow the SMILES beside them. d2Nal = N[C@H](Cc1ccc2ccccc2c1)C(=O)O

Assays:
Melanocortin receptor 4 [1] = target: T1, Melanocortin receptor 4 (Homo sapiens, UniProt P32245); test: Binding affinity against human Melanocortin-4 receptor
Melanocortin receptor 5 = Melanocortin receptor 5 (Homo sapiens, UniProt P33032); test: Binding affinity against human Melanocortin 5 receptor
Melanocortin receptor 3 = Melanocortin receptor 3 (Homo sapiens, UniProt P41968); test: Binding affinity for human Melanocortin-3 receptor
Melanocortin receptor 4 [2] = target: T1, Melanocortin receptor 4; test: Agonist activity against human Melanocortin-4 receptor; format: functional

T1 sequence (P32245 whole entry): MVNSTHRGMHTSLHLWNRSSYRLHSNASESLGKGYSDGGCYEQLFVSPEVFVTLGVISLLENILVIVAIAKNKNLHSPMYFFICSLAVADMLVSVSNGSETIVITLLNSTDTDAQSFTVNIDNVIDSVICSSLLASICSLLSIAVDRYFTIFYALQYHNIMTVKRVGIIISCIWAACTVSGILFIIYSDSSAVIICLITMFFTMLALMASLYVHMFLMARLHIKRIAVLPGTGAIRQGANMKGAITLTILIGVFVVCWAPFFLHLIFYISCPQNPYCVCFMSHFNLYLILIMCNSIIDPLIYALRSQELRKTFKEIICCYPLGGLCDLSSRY
Melanocortin receptor 5, sequence (P33032 whole entry): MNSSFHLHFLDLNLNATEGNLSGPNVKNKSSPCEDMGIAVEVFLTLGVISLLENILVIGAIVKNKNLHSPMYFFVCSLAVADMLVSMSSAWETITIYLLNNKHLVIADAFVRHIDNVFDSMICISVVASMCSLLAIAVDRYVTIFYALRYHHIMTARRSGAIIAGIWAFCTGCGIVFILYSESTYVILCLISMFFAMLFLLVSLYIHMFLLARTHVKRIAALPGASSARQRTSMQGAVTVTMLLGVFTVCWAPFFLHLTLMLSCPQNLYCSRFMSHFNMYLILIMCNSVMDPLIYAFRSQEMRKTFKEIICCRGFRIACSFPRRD
Melanocortin receptor 3, sequence (P41968 whole entry): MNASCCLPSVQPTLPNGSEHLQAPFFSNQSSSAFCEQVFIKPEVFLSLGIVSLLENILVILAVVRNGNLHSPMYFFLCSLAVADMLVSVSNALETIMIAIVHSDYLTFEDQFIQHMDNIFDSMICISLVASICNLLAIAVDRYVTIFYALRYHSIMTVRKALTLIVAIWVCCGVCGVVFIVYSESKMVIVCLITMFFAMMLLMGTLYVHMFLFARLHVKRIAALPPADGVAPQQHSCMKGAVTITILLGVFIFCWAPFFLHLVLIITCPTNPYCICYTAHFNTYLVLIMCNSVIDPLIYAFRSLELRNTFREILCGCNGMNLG

Compound | IC50 (Melanocortin receptor 4 [1]) [nM] | EC50 (Melanocortin receptor 5) [nM] | IC50 (Melanocortin receptor 5) [nM] | IC50 (Melanocortin receptor 3) [nM] | Activity (Melanocortin receptor 4 [2]) [%]
N=C(N)NCCC[C@@H]1NC(=O)[C@@H](Cc2cccc3ccccc23)NC(=O)CCC(=O)NCCCC[C@@H](C(N)=O)NC(=O)[C@H](Cc2c[nH]c3ccccc23)NC1=O | 0.5 | 530 | 540 | 150 | 
CC(=O)N[C@H]1CSSC[C@@H](C(=O)N2CCC[C@H]2C(=O)N2CCC[C@H]2C(=O)N[C@@H](CCCCN)C(=O)N[C@@H](CC(=O)O)C(N)=O)NC(=O)CNC(=O)[C@H](Cc2c[nH]c3ccccc23)NC(=O)[C@H](CCCNC(=N)N)NC(=O)[C@@H](Cc2ccc3ccccc3c2)NC(=O)[C@H](Cc2c[nH]cn2)NC(=O)[C@H](CCC(=O)O)NC1=O (Ac-CEH[d2Nal]RWGCPPKD-NH2; disulfide 1-8) | 1.5 |  | 16 | 25 | 
CC(=O)[C@@H]1CSSC[C@@H](C(=O)N2CCC[C@H]2C(=O)CN2CCC[C@H]2C(=O)CN[C@@H](CCCCN)C(=O)CN[C@@H](CC(=O)O)C(N)=O)NC(=O)CNC(=O)[C@@H](Cc2c[nH]c3ccccc23)NC(=O)[C@H](CCCN=C(N)N)NC(=O)[C@H](Cc2ccc3ccccc3c2)NC(=O)[C@H](Cc2c[nH]cn2)NC(=O)[C@@H](CCC(=O)O)NC1=O |  |  |  |  | 0
